Measurements reported in patent US10758534B2 (Vertex Pharmaceuticals Incorporated, priority 2014, dated 2020).

target: T1, F508del (Homo sapiens, UniProt P13569, DEL508-508); test: Protocol 2: FRET membrane potential optical assay (VIPR), identification of correction compounds; format: cell-based; details: Table 3; compounds of Table 1 as modulators of CFTR activity; protocol not stated
T1 construct: expressed in transfected cells
Method in brief: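 Corrector readout: membrane-potential FRET (CC2-DMPE donor, DiSBAC2(3) acceptor) on VIPR II after Cl⁻-free gluconate bath with 10 μM forskolin and 20 μM genistein. Before this, F508del-expressing NIH3T3 cells were exposed to test compound for 16 h at 37 °C without serum; 27 °C incubation served as temperature-correction control.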

T1 sequence (P13569 with tags, fused parts or gaps DEL508-508): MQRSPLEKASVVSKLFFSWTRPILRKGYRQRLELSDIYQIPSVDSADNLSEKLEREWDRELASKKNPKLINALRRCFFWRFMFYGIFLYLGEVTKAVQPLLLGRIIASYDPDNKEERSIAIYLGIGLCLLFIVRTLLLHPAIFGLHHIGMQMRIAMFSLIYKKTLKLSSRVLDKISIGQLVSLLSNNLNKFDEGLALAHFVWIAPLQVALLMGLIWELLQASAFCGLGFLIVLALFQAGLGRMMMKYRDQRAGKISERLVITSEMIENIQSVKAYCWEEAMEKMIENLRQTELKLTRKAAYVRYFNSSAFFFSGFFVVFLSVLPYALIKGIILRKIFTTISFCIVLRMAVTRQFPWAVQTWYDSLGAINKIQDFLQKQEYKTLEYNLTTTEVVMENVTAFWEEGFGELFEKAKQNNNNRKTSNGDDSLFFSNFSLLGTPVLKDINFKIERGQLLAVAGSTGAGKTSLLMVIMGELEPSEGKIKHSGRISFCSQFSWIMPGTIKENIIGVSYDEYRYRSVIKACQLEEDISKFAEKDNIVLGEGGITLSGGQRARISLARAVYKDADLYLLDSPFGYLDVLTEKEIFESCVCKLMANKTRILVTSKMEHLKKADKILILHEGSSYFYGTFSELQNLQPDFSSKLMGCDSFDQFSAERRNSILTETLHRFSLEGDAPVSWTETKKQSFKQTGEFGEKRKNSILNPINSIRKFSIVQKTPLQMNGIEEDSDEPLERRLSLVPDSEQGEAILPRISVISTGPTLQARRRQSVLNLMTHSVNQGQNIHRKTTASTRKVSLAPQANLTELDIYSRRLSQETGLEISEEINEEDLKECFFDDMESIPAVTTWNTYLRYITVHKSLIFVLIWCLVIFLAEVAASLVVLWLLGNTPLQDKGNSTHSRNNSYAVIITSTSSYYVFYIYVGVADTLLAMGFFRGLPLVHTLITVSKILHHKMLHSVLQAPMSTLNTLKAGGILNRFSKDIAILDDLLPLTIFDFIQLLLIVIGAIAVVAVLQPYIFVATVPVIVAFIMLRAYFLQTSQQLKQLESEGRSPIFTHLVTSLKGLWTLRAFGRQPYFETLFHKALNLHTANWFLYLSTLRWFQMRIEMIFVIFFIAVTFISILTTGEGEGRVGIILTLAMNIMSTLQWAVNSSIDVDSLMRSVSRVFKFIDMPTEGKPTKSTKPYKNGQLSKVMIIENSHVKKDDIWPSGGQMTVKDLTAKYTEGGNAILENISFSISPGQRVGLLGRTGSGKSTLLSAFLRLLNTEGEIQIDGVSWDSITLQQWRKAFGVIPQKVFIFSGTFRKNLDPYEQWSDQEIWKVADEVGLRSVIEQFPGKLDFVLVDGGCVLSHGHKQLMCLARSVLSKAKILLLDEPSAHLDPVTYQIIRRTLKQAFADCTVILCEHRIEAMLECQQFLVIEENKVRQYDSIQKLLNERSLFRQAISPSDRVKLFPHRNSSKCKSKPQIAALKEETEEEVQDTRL

EC30	Compound
+++ (“+++” means <3 uM)	CC(C)(C)c1cc(C(=O)NS(=O)(=O)c2ccccc2)n(Cc2c(Cl)cc(Cl)cc2Cl)n1 [Compound 145, N-(benzenesulfonyl)-5-tert-butyl-2-[(2,4,6-trichlorophenyl)methyl]pyrazole-3-carboxamide]
+++ (“+++” means <3 uM)	Cc1cc(C)c(Oc2nc(C(C)(C)C)ccc2C(=O)NS(=O)(=O)c2cccc3c2ccn3C)c(C)c1 [Compound 146, 6-tert-butyl-N-(1-methylindol-4-yl)sulfonyl-2-(2,4,6-trimethylphenoxy)pyridine-3-carboxamide]
+++ (“+++” means <3 uM)	CC(C)c1ccccc1Oc1nc(C(C)(C)C)ccc1C(=O)NS(=O)(=O)c1ccccc1 [Compound 147, N-(benzenesulfonyl)-6-tert-butyl-2-(2-isopropylphenoxy)pyridine-3-carboxamide]
+++ (“+++” means <3 uM)	Cc1cccc(C)c1Cn1nc(-c2ccccc2OC(F)(F)F)cc1C(=O)NS(=O)(=O)c1ccccc1 [Compound 149, N-(benzenesulfonyl)-2-[(2,6-dimethylphenyl)methyl]-5-[2-(trifluoromethoxy)phenyl]pyrazole-3-carboxamide]
+++ (“+++” means <3 uM)	Cc1cccc(C)c1Cn1nc(C(C)(C)C)cc1C(=O)NS(=O)(=O)c1ccc(F)c(N)c1 [Compound 150, N-(3-amino-4-fluoro-phenyl)sulfonyl-5-tert-butyl-2-[(2,6-dimethylphenyl)methyl]pyrazole-3-carboxamide]
+++ (“+++” means <3 uM)	Cc1nc(-c2ccc(-c3cc(C(=O)NS(=O)(=O)c4ccccc4)n(Cc4c(C)cccc4C)n3)s2)no1 [Compound 151, N-(benzenesulfonyl)-2-[(2,6-dimethylphenyl)methyl]-5-[5-(5-methyl-1,2,4-oxadiazol-3-yl)-2-thienyl]pyrazole-3-carboxamide]
+++ (“+++” means <3 uM)	CCOc1ccccc1-c1cc(C(=O)NS(=O)(=O)c2ccccc2)n(Cc2c(C)cccc2C)n1 [Compound 152, N-(benzenesulfonyl)-2-[(2,6-dimethylphenyl)methyl]-5-(2-ethoxyphenyl)pyrazole-3-carboxamide]
+++ (“+++” means <3 uM)	Cc1cc(C)c(Cn2c(C(=O)NS(=O)(=O)c3cccc(N)c3)cc3cc(F)ccc32)c(C)c1 [Compound 153, N-(3-aminophenyl)sulfonyl-5-fluoro-1-[(2,4,6-trimethylphenyl)methyl]indole-2-carboxamide]
+++ (“+++” means <3 uM)	CC(C)(C)c1ccc(C(=O)NS(=O)(=O)c2ccccc2)c(OCc2ccccn2)n1 [Compound 154, N-(benzenesulfonyl)-6-tert-butyl-2-(2-pyridylmethoxy)pyridine-3-carboxamide]
++ (“++” means between 3 uM and 10 uM)	COc1cc(F)ccc1-c1cc(C(=O)NS(=O)(=O)c2ccccc2)n(Cc2c(C)cccc2C)n1 [Compound 155, N-(benzenesulfonyl)-2-[(2,6-dimethylphenyl)methyl]-5-(4-fluoro-2-methoxy-phenyl)pyrazole-3-carboxamide]
+++ (“+++” means <3 uM)	Cc1cc(C(C)(C)C)cc(C)c1Cn1nc(C(C)(C)C)cc1C(=O)NS(=O)(=O)c1cccc(N)c1 [Compound 156, N-(3-aminophenyl)sulfonyl-5-tert-butyl-2-[(4-tert-butyl-2,6-dimethyl-phenyl)methyl]pyrazole-3-carboxamide]
++ (“++” means between 3 uM and 10 uM)	COc1ccccc1CCn1nc(C(C)(C)C)cc1C(=O)NS(=O)(=O)c1ccccc1 [Compound 157, N-(benzenesulfonyl)-5-tert-butyl-2-[2-(2-methoxyphenyl)ethyl]pyrazole-3-carboxamide]
+++ (“+++” means <3 uM)	Cc1cc(C)c(Cn2nc(C3(C)CC3)cc2C(=O)NS(=O)(=O)c2cccc(N)c2)c(C)c1 [Compound 158, N-(3-aminophenyl)sulfonyl-5-(1-methylcyclopropyl)-2-[(2,4,6-trimethylphenyl)methyl]pyrazole-3-carboxamide]
+++ (“+++” means <3 uM)	Cc1cccc(C)c1Cn1nc(-c2ccc(OC(F)(F)F)cc2)cc1C(=O)NS(=O)(=O)c1ccccc1 [Compound 159, N-(benzenesulfonyl)-2-[(2,6-dimethylphenyl)methyl]-5-[4-(trifluoromethoxy)phenyl]pyrazole-3-carboxamide]
+++ (“+++” means <3 uM)	CC(c1ccccc1)n1c(C(=O)NS(=O)(=O)c2ccccc2)cc2c(F)cccc21 (centres unmarked) [Compound 160, N-(benzenesulfonyl)-4-fluoro-1-(1-phenylethyl)indole-2-carboxamide]
+++ (“+++” means <3 uM)	CCOc1ccc(-c2ccc(C(=O)NS(=O)(=O)c3cccc(N)n3)c(Oc3c(C)cc(C)cc3C)n2)cc1F [Compound 161, N-[(6-amino-2-pyridyl)sulfonyl]-6-(4-ethoxy-3-fluoro-phenyl)-2-(2,4,6-trimethylphenoxy)pyridine-3-carboxamide]
+++ (“+++” means <3 uM)	CCN(CC)c1ccc(-c2cc(C(=O)NS(=O)(=O)c3ccccc3)n(Cc3c(C)cccc3C)n2)cc1 [Compound 162, N-(benzenesulfonyl)-5-[4-(diethylamino)phenyl]-2-[(2,6-dimethylphenyl)methyl]pyrazole-3-carboxamide]
+++ (“+++” means <3 uM)	Cc1cc(C)c(Oc2nc(C(C)(C)C)ccc2C(=O)NS(=O)(=O)c2cncc(N)c2)c(C)c1 [Compound 163, N-[(5-amino-3-pyridyl)sulfonyl]-6-tert-butyl-2-(2,4,6-trimethylphenoxy)pyridine-3-carboxamide]
+++ (“+++” means <3 uM)	Cc1cc(C)c(Oc2nc(-c3ccc(C(C)C)cc3)ccc2C(=O)NS(=O)(=O)c2cccc(N)n2)c(C)c1 [Compound 164, N-[(6-amino-2-pyridyl)sulfonyl]-6-(4-isopropylphenyl)-2-(2,4,6-trimethylphenoxy)pyridine-3-carboxamide]

Further lines, the compound ahead of its results:

Compound	EC30
Cc1cc(C)c(Oc2nc(C(C)(C)C)ccc2C(=O)NS(=O)(=O)c2ccccc2O)c(C)c1 [Compound 131, 6-tert-butyl-N-(2-hydroxyphenyl)sulfonyl-2-(2,4,6-trimethylphenoxy)pyridine-3-carboxamide]	+++ (“+++” means <3 uM)
Cc1cc(C)c(Oc2nc(-c3ccc(C(F)(F)F)nc3)ccc2C(=O)NS(=O)(=O)c2cccc(N)n2)c(C)c1 [Compound 132, N-[(6-amino-2-pyridyl)sulfonyl]-6-[6-(trifluoromethyl)-3-pyridyl]-2-(2,4,6-trimethylphenoxy)pyridine-3-carboxamide]	+++ (“+++” means <3 uM)
Cc1cccc(C)c1Cn1nc(-c2cccc(OC(C)C)c2)cc1C(=O)NS(=O)(=O)c1ccccc1 [Compound 133, N-(benzenesulfonyl)-2-[(2,6-dimethylphenyl)methyl]-5-(3-isopropoxyphenyl)pyrazole-3-carboxamide]	+++ (“+++” means <3 uM)
Cc1cc(C)c(Cn2c(C(=O)NS(=O)(=O)c3ccc(N)cc3)cc3ccccc32)c(C)c1 [Compound 134, N-(4-aminophenyl)sulfonyl-1-[(2,4,6-trimethylphenyl)methyl]indole-2-carboxamide]	+++ (“+++” means <3 uM)
COc1ccc(-c2cc(C(=O)NS(=O)(=O)c3ccccc3)n(Cc3c(C)cccc3C)n2)c(OC)c1 [Compound 135, N-(benzenesulfonyl)-5-(2,4-dimethoxyphenyl)-2-[(2,6-dimethylphenyl)methyl]pyrazole-3-carboxamide]	+++ (“+++” means <3 uM)
Cc1cc(C)c(Oc2nc(-c3ccc(Cl)c(OCC(C)C)c3)ccc2C(=O)NS(=O)(=O)c2ccc[nH]c2=O)c(C)c1 [Compound 136, 6-(4-chloro-3-isobutoxy-phenyl)-N-[(2-oxo-1H-pyridin-3-yl)sulfonyl]-2-(2,4,6-trimethylphenoxy)pyridine-3-carboxamide]	+++ (“+++” means <3 uM)
Cc1cc(C)c(Cn2c(C(=O)NS(=O)(=O)c3ccccc3)cc3cc(Cl)ccc32)c(C)c1 [Compound 137, N-(benzenesulfonyl)-5-chloro-1-[(2,4,6-trimethylphenyl)methyl]indole-2-carboxamide]	+++ (“+++” means <3 uM)
C[C@@H](c1ccccc1)n1nc(C(C)(C)C)cc1C(=O)NS(=O)(=O)c1cccc(N)c1 [Compound 138, N-(3-aminophenyl)sulfonyl-5-tert-butyl-2-[(1S)-1-phenylethyl]pyrazole-3-carboxamide]	++ (“++” means between 3 uM and 10 uM)
Cc1cc(C)c(CN2CC(C)(C)c3ccccc3C2C(=O)NS(=O)(=O)c2cccc(N)n2)c(C)c1 (centres unmarked) [Compound 140, N-[(6-amino-2-pyridyl)sulfonyl]-4,4-dimethyl-2-[(2,4,6-trimethylphenyl)methyl]-1,3-dihydroisoquinoline-1-carboxamide]	+++ (“+++” means <3 uM)
Cc1cc(C)c(Oc2nc(C(C)(C)C)cnc2C(=O)NS(=O)(=O)c2cccc(N)c2)c(C)c1 [Compound 141, N-(3-aminophenyl)sulfonyl-5-tert-butyl-3-(2,4,6-trimethylphenoxy)pyrazine-2-carboxamide]	+++ (“+++” means <3 uM)
Cc1cc(C)c(Cn2c(C(=O)NS(=O)(=O)c3cccc(N)c3)cc3ccc(F)cc32)c(C)c1 [Compound 142, N-(3-aminophenyl)sulfonyl-6-fluoro-1-[(2,4,6-trimethylphenyl)methyl]indole-2-carboxamide]	+++ (“+++” means <3 uM)
Cc1cc(C)c(Cn2c(C(=O)NS(=O)(=O)c3ccccc3)cc3c(C)cccc32)c(C)c1 [Compound 143, N-(benzenesulfonyl)-4-methyl-1-[(2,4,6-trimethylphenyl)methyl]indole-2-carboxamide]	+++ (“+++” means <3 uM)
Cc1cc(C)c(Cn2c(C(=O)NS(=O)(=O)c3cccc(N)c3)cc3c(C)cccc32)c(C)c1 [Compound 144, N-(3-aminophenyl)sulfonyl-4-methyl-1-[(2,4,6-trimethylphenyl)methyl]indole-2-carboxamide]	+++ (“+++” means <3 uM)
